According to patent publication US12478081B2, “Application of aspartic acid derivative in preparing animal feed additive” (ANIPHA TECHNOLOGIES PTY LTD, priority 2018, dated 2025):
Marks after values point to notes of the source that are not given here.

Legend:
[1] = Thermal stability of compounds at 60° C. (HPLC content of raw material and 2% premix); type: physicochemical; details: for Detection result of the content of test sample (%) Day 5: Day 5, relative to Day 0; for Detection result of the content of test sample (%) Day 10: Day 10, relative to Day 0
Experimental: The variations of the contents of the main ingredient of the aspartic acid derivative raw material and the main ingredient of a premix containing 2% mass fraction of the aspartic acid derivative (hereinafter referred to as 2% premix) over time were investigated under the conditions of stability test at 60° C.
Experimental apparatus: drug stability incubator, Waters high-performance liquid chromatograph (HPLC), etc.
Test samples: N-carbamoyl-DL-aspartic acid (compound 1), diethyl N-carbamoyl-DL-aspartate (compound 2), Sodium N-carbamoyl-DL-aspartate (compound 3), Calcium N-carbamoyl-DL-aspartate (compound 4), Zinc N-carbamoyl-DL-aspartate (compound 5), Copper N-carbamoyl-DL-aspartate (compound 6), Iron N-carbamoyl-DL-aspartate (compound 7), N-glycyl-DL-aspartic acid (compound 8), N-(4-aminobutyryl)-DL-aspartic acid (compound 9), N-(10-aminodecanoyl)-DL-aspartic acid (compound 10), N-(14-aminomyristoyl)-DL-aspartic acid (compound 11).
Preparation of standard solution: 50 mg of the test sample raw material was ultrasonically dissolved in 50 mL of water to obtain a working reserve solution. An appropriate amount of the working reserve solution was taken and diluted with water respectively to concentrations of 125 ppm, 250 ppm, 500 ppm, and 1000 ppm for HPLC testing. It was checked whether the sample concentrations are in a linear relationship with the peak area response values in HPLC, and a standard curve was established.
Preparation of test solution: An appropriate amount of the test sample raw material and an appropriate amount of a premix containing 2% mass fraction of the test sample (hereinafter referred to as 2% premix) were separately ultrasonically dissolved in an appropriate amount of water to form a 1000 ppm solution, which is filtered through a 0.22 µm filter membrane and then analyzed by HPLC.
HPLC analysis conditions: chromatographic column: Waters C18 column (250 mm×4.6 mm, 5 μm); mobile phase: 0.05% phosphoric acid:methanol=95:5 (v:v) (raw material); 0.05% phosphoric acid: methanol (gradient elution); methanol: 5%→40% (0-15 min) curve 6, 40%→5% (15-16 min) curve 1, 5% (16-23 min) curve 1, (premix, feed); detection wavelength: 210 nm; column temperature: 25° C.; sample size: 20 μL; flow rate: 1 mL/min.
Test method: The test sample raw material and its 2% premix were placed in a culture plate, spread into a thin layer of <5 mm, and placed at 60° C. Samples were taken on the day 5 and ? day 10 for HPLC detection. Each sample was sampled three times in parallel.

[2] = system: laying hens; experiment: Breeding test: production performance of laying hens; type: in vivo, Jingbai laying hens; details: 158 days; for ADFI / EPR (%) / EW (g): 500 ppm in basal daily ration; for feed-to-egg ratio: Table 4, 500 ppm in basal daily ration
Excerpt: The test adopted a single-factor random design. 420 147-day-old Jingbai laying hens with similar body weights were selected and randomly divided into 7 treatment groups, with 3 replications per group and 20 Jingbai laying hens (half of male and female) per replication. The poultry houses and utensils were sterilized before the test. During the test period, the Jingbai laying hens were cage cultured in the same laying poultry house under the same feeding and management conditions. The basal daily ration was mainly corn-soybean meal, and no other antioxidant ingredients or growth promoters were added additionally during the entire feeding process. The test groups include a control group and test groups I-VII. The basal daily ration was fed for the control group I only, and 500 ppm of different aspartic acid derivatives were added into the basal daily ration for the test groups II-VII, as shown in Table 3. The pre-feeding period was 10 days, and the test period was 158 days. The test laying hens were free to drink water and eat feed, and were fed twice a day.
Parameter statistics: During the test period, taking each repetition as a unit, the total egg number, the egg production, and the feed intake were recorded every day, and the egg production rate (EPR), the average daily feed intake (ADFI, g/d), the egg weight (EW, g) and the feed-to-egg ratio (FER) of the laying hens during the entire test were calculated.
Calculation formulas are as follows: […]
The test data was statistically analyzed using SPSS18 software. First, a one-way analysis of variance (ANOVA) was performed on the data. If the difference between treatments is significant, Duncan's method was used for multiple comparisons, and the significance level was 0.05.

Structure (SMILES) | Detection result of the content of test sample (%) Day 5 ([1]; 2% premix) [%] | Detection result of the content of test sample (%) Day 10 ([1]; 2% premix) [%] | Detection result of the content of test sample (%) Day 5 ([1]; Raw material) [%] | Detection result of the content of test sample (%) Day 10 ([1]; Raw material) [%] | ADFI [2] [g/day] | EPR (%) [2] | EW (g) [2] | feed-to-egg ratio [2]
CCOC(=O)CC(NC(N)=O)C(=O)OCC (racemic) [Compound 2, diethyl N-carbamoyl-DL-aspartate] | 98.81 | 98.09 | 97.32 | 96.97 | 115.19 ± 3.14 | 86.28 ± 0.20^b % | 55.94 ± 0.37^b g | 2.06 ± 0.04
NC(=O)NC(CC(=O)O)C(=O)O (racemic) [Compound 1, N-carbamoyl-DL-aspartic acid] | 99.66 | 99.70 | 99.79 | 99.28 | 113.44 ± 1.55 | 85.80 ± 0.14^b % | 55.49 ± 0.38^b g | 2.04 ± 0.02
NCCCC(=O)NC(CC(=O)O)C(=O)O (racemic) [Compound 9, N-(4-aminobutyryl)-DL-aspartic acid] | 99.41 | 97.68 | 98.46 | 98.09 | 113.64 ± 2.43 | 86.09 ± 0.18^b % | 55.44 ± 0.37^b g | 2.05 ± 0.04
NCC(=O)NC(CC(=O)O)C(=O)O (racemic) [Compound 8, N-glycyl-DL-aspartic acid] | 98.57 | 97.32 | 99.78 | 98.02 | 113.01 ± 2.31 | 84.86 ± 0.24^c % | 54.98 ± 0.39^a g | 2.06 ± 0.03
NCCCCCCCCCC(=O)NC(CC(=O)O)C(=O)O (racemic) [Compound 10, N-(10-aminodecanoyl)-DL-aspartic acid] | 98.55 | 97.81 | 99.00 | 96.73 | 119.31 ± 1.84 | 85.24 ± 0.18^c % | 57.45 ± 0.47^c g | 2.08 ± 0.03
NCCCCCCCCCCCCCC(=O)NC(CC(=O)O)C(=O)O (racemic) [Compound 11, N-(14-aminomyristoyl)-DL-aspartic acid] | 98.22 | 97.80 | 97.61 | 95.93 | 115.13 ± 2.91 | 85.24 ± 0.17^c % | 55.45 ± 0.35^b g | 2.08 ± 0.04
